This passage reports IC50 results from patent US20090215778A1, “Alpha-substituted Arylmethyl Piperazine Pyrazolo [1,5-alpha]Pyrimidine Amide Derivatives” (priority 2007, published 2009).

Assay [1] concerns the target T1, HIV Env six-helix bundle (6HB) structure (Human immunodeficiency virus type 1 group M subtype B, UniProt P04579).
T1 construct: H9 cells chronically infected with HIV-1 (H9/HIV-1RF); endogenous in cells; host or cells: H9 cells chronically infected with HIV-1 strain RF (Env is made from the virus in the infected cells, not by transfection)
The assay can be described thus: Six-helix bundle (6HB) assay. Format: cell-based, HIV-1 (strain RF). In outline: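 Flow cytometry measured binding of a six-helix-bundle-specific polyclonal antibody, detected with PE-labelled secondary at 4 °C for 45 min, on H9/HIV-1 RF chronically infected cells. Compound was given 30 min at 37 °C before 1 μg/mL soluble CD4 induction for 1 h. Inhibition appears as reduced fluorescence.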

Assay [2] concerns HIV-1, NL4-3 strain. Briefly: Virus infection assay (virus entry and single-cycle infection). Format: cell-based. Conditions: Human immunodeficiency virus 1, NL43, TZM-b1, read-out: Nl4. In outline:
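Single-cycle entry/infection read-out: β-galactosidase chemiluminescence measured one day after infection. Compounds were present during a 4 h, 37 °C exposure of TZM-b1 reporter cells to NL4-3 virus at MOI 0.01 plus DEAE-dextran (80 μg/mL final), followed by addition of complete medium.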

T1 sequence (P04579 32-519): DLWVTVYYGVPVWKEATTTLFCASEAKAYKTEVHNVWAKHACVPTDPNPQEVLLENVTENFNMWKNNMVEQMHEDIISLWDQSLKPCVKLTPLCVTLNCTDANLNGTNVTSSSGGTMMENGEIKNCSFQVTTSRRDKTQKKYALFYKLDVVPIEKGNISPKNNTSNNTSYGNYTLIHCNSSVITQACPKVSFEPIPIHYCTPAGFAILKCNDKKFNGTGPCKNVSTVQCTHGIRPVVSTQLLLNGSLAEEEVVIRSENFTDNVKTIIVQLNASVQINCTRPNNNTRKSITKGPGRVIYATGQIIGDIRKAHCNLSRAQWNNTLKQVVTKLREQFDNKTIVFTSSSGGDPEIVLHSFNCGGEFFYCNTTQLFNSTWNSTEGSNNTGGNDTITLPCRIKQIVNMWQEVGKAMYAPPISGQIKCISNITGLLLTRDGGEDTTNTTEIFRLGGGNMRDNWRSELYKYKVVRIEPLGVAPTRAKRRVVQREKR
T1 sequence (P04579 520-865): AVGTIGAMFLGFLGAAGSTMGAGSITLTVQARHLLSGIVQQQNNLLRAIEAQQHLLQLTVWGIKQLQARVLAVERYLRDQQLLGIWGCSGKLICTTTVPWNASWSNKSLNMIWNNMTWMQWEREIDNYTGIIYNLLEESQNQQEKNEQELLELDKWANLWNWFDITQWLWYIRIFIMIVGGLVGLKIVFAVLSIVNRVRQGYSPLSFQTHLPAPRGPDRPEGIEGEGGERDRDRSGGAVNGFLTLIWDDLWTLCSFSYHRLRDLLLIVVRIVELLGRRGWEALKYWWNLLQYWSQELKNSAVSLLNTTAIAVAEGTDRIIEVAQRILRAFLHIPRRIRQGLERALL

Consider `COc1ccc(-c2nc3c(C(=O)N4CCN([C@@H](CO)c5ccccc5)C[C@H]4C)cnn3c(N(C)C)c2F)cc1` [methanone, [7-(dimethylamino)-6-fluoro-5-(4-methoxyphenyl)pyrazolo[1,5-α]pyrimidin-3-yl][(2R)-4-[(1R)-2-hydroxy-1-phenylethyl]-2-methyl-1-piperazinyl]-], for which the IC50 in assay [1] and in assay [2] was below 1 µM throughout.
Consider `COc1ccc(-c2nc3c(C(=O)N4CCN(C(CN)c5ccccc5)C[C@H]4C)cnn3c(C(F)(F)F)c2C)cc1` (stereo partly drawn) [methanone, [(2R)-4-(2-amino-1-phenylethyl)-2-methyl-1-piperazinyl][5-(4-methoxyphenyl)-6-methyl-7-(trifluoromethyl)pyrazolo[1,5-α]pyrimidin-3-yl]-], for which the IC50 in assay [1] and in assay [2] was below 1 µM throughout.
On to `COc1ccc(-c2nc3c(C(=O)N4CCN(C(c5ccccc5)C(C)O)C[C@H]4C)cnn3c(C(F)(F)F)c2C)cc1` (stereo partly drawn) [methanone, [(2R)-4-(2-hydroxy-1-phenylpropyl)-2-methyl-1-piperazinyl][5-(4-methoxyphenyl)-6-methyl-7-(trifluoromethyl)pyrazolo[1,5-α]pyrimidin-3-yl]-], for which the IC50 in assay [1] and in assay [2] was below 1 µM in each case.
As to `COc1ccc(-c2nc3c(C(=O)N4CCN(C(c5ccccc5)C(C)(C)O)C[C@H]4C)cnn3c(C(F)(F)F)c2C)cc1` (stereo partly drawn) [methanone, [(2R)-4-(2-hydroxy-2-methyl-1-phenylpropyl)-2-methyl-1-piperazinyl][5-(4-methoxyphenyl)-6-methyl-7-(trifluoromethyl)pyrazolo[1,5-α]pyrimidin-3-yl]-], the IC50 in assay [1] and in assay [2] was below 1 µM in each case.
In the case of `COc1ccc(-c2nc3c(C(=O)N4CCN(C(CO)c5cccc6c5OC(F)(F)O6)C[C@H]4C)cnn3c(C(F)(F)F)c2C)cc1` (stereo partly drawn) [methanone, [(2R)-4-[1-(2,2-difluoro-1,3-benzodioxol-4-yl)-2-hydroxyethyl]-2-methyl-1-piperazinyl][5-(4-methoxyphenyl)-6-methyl-7-(trifluoromethyl)pyrazolo[1,5-α]pyrimidin-3-yl]-], the IC50 in assay [1] and in assay [2] was below 1 µM in each case.
`COc1ccc(-c2nc3c(C(=O)N4CCN(C(CO)c5cccc(F)c5F)C[C@H]4C)cnn3c(C(F)(F)F)c2C)cc1` (stereo partly drawn) [methanone, [(2R)-4-[1-(2,3-difluorophenyl)-2-hydroxyethyl]-2-methyl-1-piperazinyl][5-(4-methoxyphenyl)-6-methyl-7-(trifluoromethyl)pyrazolo[1,5-α]pyrimidin-3-yl]-]: the IC50 in assay [1] and in assay [2] was below 1 µM in each case.
With `COc1ccc(-c2nc3c(C(=O)N4CCN(C(CO)c5cccc(OC)c5OC)C[C@H]4C)cnn3c(C(F)(F)F)c2C)cc1` (stereo partly drawn) [methanone, [(2R)-4-[1-(2,3-dimethoxyphenyl)-2-hydroxyethyl]-2-methyl-1-piperazinyl][5-(4-methoxyphenyl)-6-methyl-7-(trifluoromethyl)pyrazolo[1,5-α]pyrimidin-3-yl]-], the IC50 in assay [1] and in assay [2] was below 1 µM in each case.
As for `COc1ccc(-c2nc3c(C(=O)N4CCN(C(CO)c5ccc(F)cc5F)C[C@H]4C)cnn3c(C(F)(F)F)c2C)cc1` (stereo partly drawn) [methanone, [(2R)-4-[1-(2,4-difluorophenyl)-2-hydroxyethyl]-2-methyl-1-piperazinyl][5-(4-methoxyphenyl)-6-methyl-7-(trifluoromethyl)pyrazolo[1,5-α]pyrimidin-3-yl]-], the IC50 in assay [1] and in assay [2] was below 1 µM throughout.
As for `COc1ccc(-c2nc3c(C(=O)N4CCN(C(CO)c5ccc(OC)cc5OC)C[C@H]4C)cnn3c(C(F)(F)F)c2C)cc1` (stereo partly drawn) [methanone, [(2R)-4-[1-(2,4-dimethoxyphenyl)-2-hydroxyethyl]-2-methyl-1-piperazinyl][5-(4-methoxyphenyl)-6-methyl-7-(trifluoromethyl)pyrazolo[1,5-α]pyrimidin-3-yl]-], the IC50 in assay [1] and in assay [2] was below 1 µM in each case.
